From US20250243194A1, “ANTAGONIST OF ADENOSINE RECEPTORS” (AdoRx Therapeutics Limited, priority 2022, published 2025)
Like-named read-outs stand apart in the source and are kept apart here.

Legend:
[1] = target: human Adenosine A2b receptor (Homo sapiens (Human), UniProt P29275); test: Adenosine receptor TR-FRET binding assay (A2b); conditions: inhibition of binding of 30 nM CA200645; CHO cell membranes; Ki from IC50 by Cheng and Prusoff
Procedure, shortened: (§1)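 Compounds incubated 2 h at room temperature with membranes from CHO cells expressing terbium-labelled human receptors, competing with the fluorescent antagonist CA200645 (30 nM for A2b; 100 nM for A1, A2a and A3). Read by TR-FRET (665/620 nm); non-specific binding defined with 10 μM XAC. Ki derived from IC50 via Cheng-Prusoff.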

[2] = target: human Adenosine A2a receptor (Homo sapiens (Human), UniProt P29274); test: Adenosine receptor TR-FRET binding assay (A2a)
Procedure, shortened: as §1

[3] = target: human Adenosine A1 receptor (Homo sapiens (Human), UniProt P30542); test: Adenosine receptor TR-FRET binding assay (A1)
Procedure, shortened: as §1

[4] = system: immature monocyte-derived dendritic cells (MoDC); test: MoDC pCREB assay; assay type: cell-based; conditions: Homo sapiens, Dendritic cell, CD209+/CD86-low cells, 1 μM NECA, 20 μM rolipram, largely specific to A2B
Procedure: Monocytes are isolated from human whole blood using CD14 microbeads (Miltenyi Biotec 130-050-201) and differentiated to immature monocyte-derived dendritic cells (MoDC) by culture for 5 days in Mo-DC Differentiation Medium (Miltenyi Biotec 130-094-812). MoDCs are seeded into fresh medium into U bottomed 96 well culture plates and pre-incubated at 37° C. with serial dilutions of A2A/B antagonists for 15 min. At the same time the cells are co-incubated with the phosphodiesterase inhibitor rolipram (final concentration of 20 μM) to amplify the subsequent pCREB response. Adenosine receptor agonist NECA is then added at 1 μM final concentration, leading to an increase in CREB phosphorylation. Following a 45 min incubation at 37° C., the cells are fixed, permeabilized and stained with directly conjugated fluorescent antibodies to phospho-CREB (Alexa Fluor 488), CD209 (PerCP-Cy5.5) and CD86 (APC). Samples are analysed by FACS to measure fluorescence in corresponding channels, and also forward and Side scatter. The population of CD209+/CD86-low cells corresponding to immature dendritic cells is gated for analysis of pCREB levels.
Approximately 5% of the analysed cells are positive for detection of pCREB in the absence of agonist stimulation, representing the background signalling of all pathways upstream of CREB. Following NECA stimulation this is increased to ˜80% pCREB+ve, and this increase is essentially fully reversible by A2B or dual A2A/B antagonists.
IC50 is represented as the point of inflection of a sigmoidal curve

[5] = system: CD8+ T cells in human whole blood; test: Measurement of pCREB in CD8+ T cells in human whole blood; assay type: cell-based; conditions: T-cell, 3 μM NECA, rolipram, FACS
Procedure: Heparinised human whole blood was pre-incubated at 37° C. with serial dilutions of A2a antagonists for 20 min. and the phosphodiesterase inhibitor rolipram to amplify the pCREB response. The adenosine receptor agonist NECA is then added at a final concentration of 3 μM and following a 60 min incubation the blood is fixed and red blood cells lysed. White blood cells are isolated, permeabilized and stained with directly conjugated fluorescent antibodies to phospho-CREB (Alexa Fluor 488) and CD8 (Alexa Fluor 647) and the level of phospho-CREB in CD8+ T cells is measured by FACS using a BD Accuri C6 Flow Cytometer.

human PBMCs = test: CD3/CD28 stimulated IL-2 release NECA reversal assay in human PBMCs; assay type: cell-based; conditions: PBMC, reversal of 1 uM NECA, 24 hours
Procedure: Blood is drawn from healthy volunteers using sodium citrate as the anticoagulant (0.3% final concentration). After centrifugation of the blood over Histopaque-1077, PBMCs are collected from the Histopaque/plasma interface and washed twice in PBS (300 g for 10 mins at room temp). Cells are plated at 50,000 cells/well in 150 μl RPMI/10% FCS in 96-well cell culture plates that have been precoated with 1 μg/ml CD3 antibody. 50 μl diluted compound mix is added to the cells, to obtain final concentrations of 1 μg/ml CD28 antibody, 1 uM NECA and 0.003-10 μM adenosine receptor antagonist. Assay plates are incubated for 24 hours at 37° C. in a humidified incubator. Culture supernatant is tested for IL-2 levels using the human IL-2 Tissue Culture Kit (Meso Scale Discovery).

[6] = inhibition of binding of 100 nM CA200645, CHO cell membranes, Ki from IC50 by Cheng and Prusoff

Sequence of human Adenosine A2b receptor (P29275 whole entry): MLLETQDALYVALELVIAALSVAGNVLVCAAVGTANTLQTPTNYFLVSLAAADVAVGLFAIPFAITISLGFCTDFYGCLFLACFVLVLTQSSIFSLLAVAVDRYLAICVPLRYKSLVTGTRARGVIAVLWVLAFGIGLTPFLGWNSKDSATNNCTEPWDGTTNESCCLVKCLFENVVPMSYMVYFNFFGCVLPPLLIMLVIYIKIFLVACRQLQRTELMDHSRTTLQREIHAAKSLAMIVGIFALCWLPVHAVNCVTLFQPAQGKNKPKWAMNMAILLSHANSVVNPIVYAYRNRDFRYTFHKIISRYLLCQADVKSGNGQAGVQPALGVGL
Sequence of human Adenosine A1 receptor (P30542 whole entry): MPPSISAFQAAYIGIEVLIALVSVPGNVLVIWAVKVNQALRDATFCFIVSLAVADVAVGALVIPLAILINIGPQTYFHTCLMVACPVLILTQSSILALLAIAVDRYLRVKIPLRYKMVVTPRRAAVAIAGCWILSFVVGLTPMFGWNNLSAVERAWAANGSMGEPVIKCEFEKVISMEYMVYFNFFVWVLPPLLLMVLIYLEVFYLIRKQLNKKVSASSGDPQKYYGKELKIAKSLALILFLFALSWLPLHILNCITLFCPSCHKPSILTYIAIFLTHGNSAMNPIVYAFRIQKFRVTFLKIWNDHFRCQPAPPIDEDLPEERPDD
Sequence of human Adenosine A2a receptor (P29274 whole entry): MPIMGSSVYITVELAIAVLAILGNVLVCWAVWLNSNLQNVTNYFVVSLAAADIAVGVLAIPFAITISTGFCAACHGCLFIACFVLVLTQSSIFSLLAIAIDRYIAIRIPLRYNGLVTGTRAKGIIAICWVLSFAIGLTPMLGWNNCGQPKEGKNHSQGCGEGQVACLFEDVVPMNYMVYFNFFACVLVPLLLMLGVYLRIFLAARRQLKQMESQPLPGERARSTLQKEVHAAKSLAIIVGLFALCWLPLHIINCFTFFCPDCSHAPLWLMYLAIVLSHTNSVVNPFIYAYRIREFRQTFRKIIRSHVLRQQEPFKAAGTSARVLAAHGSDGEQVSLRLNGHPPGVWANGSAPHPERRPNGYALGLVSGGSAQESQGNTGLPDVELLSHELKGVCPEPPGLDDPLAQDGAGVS

SMILES	Ki [1]	Ki [2, 6]	Ki [3, 6]	IC50 [4]	IC50 [5]	IC50 (human PBMCs)	Ki [2]	Ki [3]
Cc1ncnc2ccc(-c3sc(NC(=O)N4CCC(C)(C#N)CC4)nc3-c3cccc(C#N)c3)cc12 [Example 6, 4-Cyano-N-[4-(3-cyanophenyl)-5-(4-methylquinazolin-6-yl)thiazol-2-yl]-4-methyl-piperidine-1-carboxamide]	0.8 nM	0.07 nM	3 nM	2 nM	11 nM	0.1 nM		
Cc1ncnc2ccc(-c3sc(NC(=O)N4CCC5(CC4)CN(C)C(=O)O5)nc3-c3cccc(C#N)c3)cc12 [Example 7.26, N-[4-(3-Cyanophenyl)-5-(4-methylquinazolin-6-yl)thiazol-2-yl]-3-methyl-2-oxo-1-oxa-3,8-diazaspiro[4.5]decane-8-carboxamide]	1.8 nM	0.13 nM	19 nM	2 nM	15 nM	0.5 nM		
Cc1ncnc2ccc(-c3sc(NC(=O)N4CCN(C5COC5)CC4)nc3-c3cccc(C#N)c3)cc12 [Example 7.28, N-[4-(3-Cyanophenyl)-5-(4-methylquinazolin-6-yl)thiazol-2-yl]-4-(oxetan-3-yl)piperazine-1-carboxamide]	3.3 nM	0.64 nM	65 nM	5 nM	22 nM	0.9 nM		
Cc1ncnc2ccc(-c3sc(NC(=O)N4CC5(CNCCO5)C4)nc3-c3cccc(C#N)c3)cc12 [Example 4.1, N-[4-(3-Cyanophenyl)-5-(4-methylquinazolin-6-yl)thiazol-2-yl]-5-oxa-2,8-diazaspiro[3.5]nonane-2-carboxamide]	1.1 nM			2 nM	8 nM	1.8 nM	0.14 nM	42 nM
Cc1ncnc2ccc(-c3sc(NC(=O)N4CCNCC4CC4CC4)nc3-c3cccc(C#N)c3)cc12 (stereo not drawn) [Example 2.1, N-[4-(3-Cyanophenyl)-5-(4-methylquinazolin-6-yl)thiazol-2-yl]-2-(cyclopropylmethyl)piperazine-1-carboxamide]	2.5 nM	0.25 nM	12 nM	3 nM	50 nM	1.8 nM		
Cc1ncnc2ccc(-c3sc(NC(=O)N4CCC5(CC4)CNC(=O)C5)nc3-c3cccc(C#N)c3)cc12 [Example 7.17, N-[4-(3-Cyanophenyl)-5-(4-methylquinazolin-6-yl)thiazol-2-yl]-3-oxo-2,8-diazaspiro[4.5]decane-8-carboxamide]	1.9 nM	0.2 nM	13 nM	2 nM	4 nM	1.1 nM		
Cc1ncnc2ccc(-c3sc(NC(=O)N4CCC(C)(C#N)C4)nc3-c3cccc(C#N)c3)cc12 (stereo not drawn) [Example 7.25, 3-Cyano-N-[4-(3-cyanophenyl)-5-(4-methylquinazolin-6-yl)thiazol-2-yl]-3-methyl-pyrrolidine-1-carboxamide]	1.1 nM	0.12 nM	3 nM	2 nM	7 nM	0.3 nM		
Cc1ncnc2c(C)cc(-c3sc(NC(=O)N4CC5(COC5)C4)nc3-c3cccc(C#N)c3)cc12 [Example 20, N-[4-(3-Cyanophenyl)-5-(4,8-dimethylquinazolin-6-yl)thiazol-2-yl]-2-oxa-6-azaspiro[3.3]heptane-6-carboxamide]	1 nM	0.18 nM	8 nM	3 nM	105 nM	0.8 nM		
Cc1ncnc2ccc(-c3sc(NC(=O)N4CCC5(CCC(=O)N5)CC4)nc3-c3cccc(C#N)c3)cc12 [Example 7.23, N-[4-(3-Cyanophenyl)-5-(4-methylquinazolin-6-yl)thiazol-2-yl]-2-oxo-1,8-diazaspiro[4.5]decane-8-carboxamide]	1.1 nM	0.13 nM	10 nM	3 nM	30 nM	0.8 nM		
